The values that follow come from US7960384B2, “Dipeptidyl peptidase inhibitors” (Takeda Pharmaceutical Company Limited, priority 2006, dated 2011).

In this test the target is Human DPP-IV (Homo sapiens, UniProt P27487). Put plainly: DPP-IV Assay (protease inhibition, AP-AFC substrate). The test is classed as biochemical. The method, then: Solutions of test compounds in varying concentrations (≦10 mM final concentration) were prepared in Dimethyl Sulfoxide (DMSO) and then diluted into assay buffer comprising: 20 mM Tris, pH 7.4; 20 mM KCl; and 0.1 mg/mL BSA. Human DPP-IV (0.1 nM final concentration) was added to the dilutions and pre-incubated for 10 minutes at ambient temperature before the reaction was initiated with A-P-7-amido-4-trifluoromethylcoumarin (AP-AFC; 10 μM final concentration). The total volume of the reaction mixture was 10-100 μL depending on assay formats used (384 or 96 well plates). The reaction was followed kinetically (excitation λ=400 nm; emission λ=505 nm) for 5-10 minutes or an end-point was measured after 10 minutes. Inhibition constants (IC50) were calculated from the enzyme progress curves using standard mathematical models.
Sequence of Human DPP-IV (P27487 whole entry): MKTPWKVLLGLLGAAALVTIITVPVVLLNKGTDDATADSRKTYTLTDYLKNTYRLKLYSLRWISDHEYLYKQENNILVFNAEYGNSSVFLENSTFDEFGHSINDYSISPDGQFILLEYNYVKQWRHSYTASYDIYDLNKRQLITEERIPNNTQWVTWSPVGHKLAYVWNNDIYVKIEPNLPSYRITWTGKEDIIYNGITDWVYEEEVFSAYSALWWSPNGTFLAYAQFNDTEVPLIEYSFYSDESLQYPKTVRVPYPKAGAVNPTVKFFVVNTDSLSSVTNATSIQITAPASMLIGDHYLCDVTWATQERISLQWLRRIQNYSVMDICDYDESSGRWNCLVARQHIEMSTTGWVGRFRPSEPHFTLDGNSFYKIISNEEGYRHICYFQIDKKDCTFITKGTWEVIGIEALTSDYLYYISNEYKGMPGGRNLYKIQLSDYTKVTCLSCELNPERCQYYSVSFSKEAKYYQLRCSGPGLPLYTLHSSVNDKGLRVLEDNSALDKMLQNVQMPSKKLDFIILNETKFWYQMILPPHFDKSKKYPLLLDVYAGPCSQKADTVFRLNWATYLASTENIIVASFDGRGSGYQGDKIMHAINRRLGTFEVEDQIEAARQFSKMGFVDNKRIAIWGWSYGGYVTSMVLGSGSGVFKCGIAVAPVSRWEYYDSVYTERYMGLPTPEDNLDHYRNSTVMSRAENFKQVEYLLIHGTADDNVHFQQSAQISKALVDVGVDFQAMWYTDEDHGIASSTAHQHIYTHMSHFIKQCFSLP

pIC50: −log10 of the molar value. A value given as a limit tells only on which side of the number the result lay.

By pIC50 is commonly meant the IC50 on a negative log10 scale, so that one unit is a factor of ten. A higher pIC50 goes with a small IC50. Turning to `COc1ccccc1-c1ccc2[nH]c(=O)c(=O)[nH]c2c1CN` [Example 1, 5-Aminomethyl-6-(2-methoxy-phenyl)-1,4-dihydro-quinoxaline-2,3-dione], the pIC50 (DPP-IV inhibition, Human DPP-IV 0.1 nM, AP-AFC 10 μM) is > 4.30. Moreover, the “selectivity in protease inhibition assays” value (tested in DPP-IV, FAPα, PREP and Tryptase assays) is “selective DPP-IV inhibitory activity”.
